Like-named read-outs stand apart in the source and are kept apart here.

The values below come from paper PMC8778022, “Synthesis and Biological Activity of 3-(Heteroaryl)quinolin-2(1H)-ones Bis-Heterocycles as Potential Inhibitors of the Protein Folding Machinery Hsp90” (Molecules, 2022).

In data set [1] the test system is MDA-MB-231 cells. Put plainly: MTS cell viability assay, MDA-MB-231 cells, 72 h. Conditions: % of viable cells compared to untreated cells 100%; for viability at 25 µM / viability at 10 µM / viability at 15 µM: Homo sapiens, MDA-MB-231, 72 h. Format: cell-based, human. The protocol:
(§1) Upon completion of their syntheses, the in vitro activity of quinolone derivatives 3a–f, 4a–h, and 5a,b was evaluated by their growth-inhibitory potency in three cancer cell lines. At first, the viability of the synthesized compounds was examined with the MDA-MB-231 […] breast cancer cell line at concentrations of 10 µM, 15 µM, and 25 µM. Prostate cancer PC-3 cells and human fetal lung fibroblast MRC-5 cell lines were also subjected to this series of compounds at a unique concentration of 15 µM.
(§2) MDA-MB-231 cells were grown in L15 supplemented with 15% serum, 2 mM glutamine, and 22 mM sodium bicarbonate in the presence of Penicillin/Streptomycin antibiotic mixture. PC-3 cells were cultured in RPMI 1640 supplemented with 10% serum and 2 mM glutamine in the presence of Penicillin/Streptomycin antibiotic mixture. MRC-5 cells were cultured in EMEM supplemented with 10% serum and 2 mM glutamine in the presence of Penicillin/Streptomycin antibiotic mixture (Reagents were purchased from Sigma Aldrich, Saint-Quentin-Fallavier, France).
(§3) Cells were treated for 72 h with 10, 15, and 25 µM of the selected substances. Control cells were treated with the equivalent in DMSO.
(§4) Cell survival was assessed using the CellTiter Aqueous One Proliferation assay (Promega, Charbonnières-les-Bains, France) whereby 2500 or 5000 cells per well were seeded in 96-well plates in 100 µL. At the end of the treatment, 20 µL of reagent was added, and absorbance readings were taken at 492 nm on a 96-well plate reader after 3 h of contact (on average).
For orientation: Tetrazolium assays rely on reduction of a dye to a coloured formazan, in cell work by metabolically active cells.

A short description of data set [2]: MTS cell viability assay, MRC-5 cells, 72 h. The following applies: human, MRC-5 fetal lung fibroblast cells, % of viable cells compared to untreated cells 100%. The format is cell-based, human. As for the experimental part: as §1, §2, §3, §4
The subject of data set [3] is colon carcinoma cells. Details: method as in PMID 34952432. Conditions: cited from earlier work.
Data set [4] concerns MCF7. The following applies: Figure 1; cited from earlier work.
Data set [5] has as its system PC-3 cells. As to the kind of experiment: MTS cell viability / growth inhibition assay, PC-3 cells, 72 h. The format is cell-based, human. As for the experimental part: as §1
Then, the growth inhibitory activities against PC-3 prostate cancer cell line were measured for the selected 3-heteroaryl-quinolin-2(1H)-one derivatives 3a–e.
as §2, §3, §4

The test system of data set [6] is Hsp90 client proteins (HER2, Raf-1 and cdk-4). Conditions: earlier studies on mode of action; cited from earlier work.
For data set [7], the system named is MCF-7 breast cancer cell line. Conditions: earlier studies on mode of action; cited from earlier work.
In data set [8] the test system is PC3. The following applies: earlier studies on mode of action; cited from earlier work.
The test system of data set [9] is SkBr3 cell lines. The following applies: cited from earlier work.
Data set [10] deals with human fetal lung fibroblast MRC-5. As to the kind of experiment: MTS cell viability assay, MRC-5 cells, 72 h. Format: cell-based. Conditions: % of viable cells compared to untreated cells 100%. As for the experimental part: as §1, §2, §3, §4

By viability is commonly meant a per cent measure of how many cells are alive, often set against a control. A lower viability goes with a greater loss of cells. One may read the melting point as the temperature of the solid-liquid transition. In turn, `Cn1c(=O)c(-c2nc3c(-c4ccc(Cl)cc4)ncnc3n2Cc2ccccc2)cc2ccccc21` [4g, 3-[9-benzyl-6-(4-chlorophenyl)-9H-purin-8-yl]-1-methylquinolin-2(1H)-one] had a melting point of 202 to 203 °C. Also, the viability at 25 µM in data set [1] (25 µM) was around 30%. The molecule further had a viability at 72 h, 15 µM in data set [2] of 71 to 79%.

For `Cn1c(=O)c(NC(=O)c2ccc(OCCCCCCCCCC[P+](c3ccccc3)(c3ccccc3)c3ccccc3)cc2)cc2cc(Br)ccc21.[Br-]` [6BrCaQ-C10-TPP], in data set [3], the mitochondrial membrane disruption entry was “significant mitochondrial membrane disruption”.

What is called IC50 is the concentration at which inhibition is half-maximal. For orientation: GI50 means the concentration giving 50% growth inhibition. Regarding `COc1ccc(C(=O)Nc2cc3cc(Br)ccc3n(C)c2=O)cc1` [6BrCaQ], the IC50 in data set [4] is 7 µM. In addition, the GI50 in [5] (Homo sapiens, PC-3, concentration needed to reduce cell growth by 50%, 72 h treatment, estimated, read-out: GI50 anti-proliferative effect PC-3) is 10 µM. Also, in [6], the “Hsp90 client proteins (HER2, Raf-1 and cdk-4)” value was “downregulation”. In addition, the apoptosis level result in data set [7] and in [8] was “high apoptosis level” throughout.

Take `CN1CCC(Oc2ccc3cc(-c4cc5ccccc5s4)c(=O)oc3c2)CC1` [(I)]: the IC50 in [9] (cell death, SkBr3) was 0.98 µM.

In data set [1], `Cc1cc(C)cc(-c2ncnc3c2nc(-c2cc4ccccc4n(C)c2=O)n3Cc2ccccc2)c1` [C00011] yielded a viability at 10 µM of 57% and a viability at 15 µM of 62%. For the same molecule, in data set [1] (25 µM), the viability at 25 µM was found to be 50%. For the same molecule, the “Cell viability [%] PC-3 (15 µM)” value in [5] (15 µM, 72 h, MTS, % of viable cells compared to untreated cells 100%) stood at 56%. Moreover, the “Cell viability [%] MRC-5 (15 µM)” value in data set [10] is 71%.

For the molecule `Cn1c(=O)c(-c2nc3c(-c4ccc(Cl)cc4)ncnc3n2Cc2ccccc2)cc2ccccc21` [C00013], in data set [1] (25 µM), the “Cell viability [%] MDA-MB-231” value came out at 27%. In data set [1], the viability at 10 µM is 56% and the viability at 15 µM came out at 57%. In data set [5] (Homo sapiens, PC-3, 72 h, 15 µM, 72 h, MTS, % of viable cells compared to untreated cells 100%), the viability at 15 µM was determined as 91%. The “Cell viability [%] MRC-5 (15 µM)” value in data set [10] is reported as 79%.

Turning to `CO[C@@H]1[C@@H](OC(N)=O)[C@@H](O)[C@H](Oc2ccc3c(O)c(NC(=O)c4ccc(O)c(CC=C(C)C)c4)c(=O)oc3c2C)OC1(C)C` [Novobiocin, novobiocin], in [4], the IC50 was 260 µM.

Take `CC(C)NCCCn1c(Sc2cc3c(cc2I)OCO3)nc2c(N)ncnc21` [PU-H]: the IC50 in data set [9] (Figure 1) was 0.05 to 0.09 µM.
